Experimental data from PubChem BioAssay (NCI).
Several values for one entry are separate records, joined by “and”; a condition that tells them apart may be missing. Identical values can stand only once.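 96-well plates; 48 h exposure; 5 concentrations. Endpoints by linear interpolation between flanking doses. Not reached: highest tested concentration assigned. GI50 = concentration required for 50% inhibition of growth. TGI: total growth inhibition.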

Key:
Experiment in all cases: NCI anticancer screen, dose series, 48 h
SN12C renal = system: SN12C renal
NCI-H226 lung = system: NCI-H226 lung
HCT-116 colon = system: HCT-116 colon
SK-OV-3 ovarian = system: SK-OV-3 ovarian
SK-MEL-28 melanoma = system: SK-MEL-28 melanoma
SF-268 CNS = system: SF-268 CNS
RPMI-8226 leukemia = system: RPMI-8226 leukemia
IGROV1 ovarian = system: IGROV1 ovarian
HOP-62 NSCLC = system: HOP-62 NSCLC
PC-3 prostate = system: PC-3 prostate

Row | SMILES | GI50 (SN12C renal) | TGI (SN12C renal) | GI50 (NCI-H226 lung) | TGI (NCI-H226 lung) | GI50 (HCT-116 colon) | TGI (HCT-116 colon) | GI50 (SK-OV-3 ovarian) | TGI (SK-OV-3 ovarian) | GI50 (SK-MEL-28 melanoma) | TGI (SK-MEL-28 melanoma) | GI50 (SF-268 CNS) | TGI (SF-268 CNS) | GI50 (RPMI-8226 leukemia) | TGI (RPMI-8226 leukemia) | GI50 (IGROV1 ovarian) | TGI (IGROV1 ovarian) | GI50 (HOP-62 NSCLC) | TGI (HOP-62 NSCLC) | GI50 (PC-3 prostate) | TGI (PC-3 prostate)
1 | O=S(=O)(NC1=NCCN1C(=S)SN1CCn2c1nsc2=S)c1ccccc1Cl | 31.6 µM | > 100 µM | 35.7 µM | > 100 µM | 12.2 µM | 28.2 µM | 57 µM | > 100 µM | 16.1 µM | 65.7 µM | 13.3 µM | 87.6 µM | 3.5 µM | 26.2 µM | 34.8 µM | > 100 µM | 17.4 µM | 33.9 µM | – | –
2 | O=C(Nc1nc2ccc([N+](=O)[O-])cc2s1)C(=O)C(C(=O)c1ccncc1)C1OC(=O)c2ccccc21 (stereo not drawn) | – | > 100 µM | – | > 100 µM | – | > 100 µM | – | – | – | – | – | > 100 µM | – | > 100 µM | – | > 100 µM | – | > 100 µM | – | –
3 | COc1nc2c(nc(N)n2C2OCC(O)C(O)C2O)c(=O)n1C (stereo not drawn) | – | > 100 µM | – | > 100 µM | – | > 100 µM | – | > 100 µM | – | > 100 µM | – | > 100 µM | – | – | – | > 100 µM | – | > 100 µM | – | –
4 | O=c1cccccc1[O-].O=c1cccccc1[O-].O=c1cccccc1[O-].[Ce+3] | 25.7 µM | > 100 µM | – | > 100 µM | – | 54.3 µM | – | 72.3 µM | – | – | – | – | – | > 100 µM | – | 88.4 µM | 17.4 µM | 45.3 µM | – | –
5 | COc1cc(NC(=O)NCc2ccco2)ccc1-c1ccc(NC(=O)NCc2ccco2)cc1OC | 3.17 µM | 23.3 µM | 1.46 µM | 7.92 µM | 0.696 µM | > 100 µM | 2.49 µM | 19.7 µM | 1.5 µM | 5.33 µM | 0.98 µM | 13.6 µM | > 100 µM | > 100 µM | – | – | 1.94 µM | 11.3 µM | 3.34 µM | 39.9 µM
6 | CC1(C(=O)O)CCOc2ccccc21 (stereo not drawn) | – | > 100 µM | – | > 100 µM | – | > 100 µM | – | – | – | > 100 µM | – | > 100 µM | – | > 100 µM | – | > 100 µM | – | > 100 µM | – | –
7 | CC(=O)[O-].[Zn].c1ccc(/C(=N\Nc2ccccn2)c2ccccn2)cc1 | 0.363 µM | 10.9 µM | 0.212 µM | 0.962 µM and 5.73 µM | – | 1.26 µM | 0.507 µM | 2.79 µM | – | – | 0.421 µM | 3.13 µM | – | 2.86 µM | – | 0.272 µM | 0.591 µM | 1.81 µM | – | –
8 | C=C1CCCC2[C@](C)(CC3=C(O)C(=O)C=C(OC)C3=O)[C@@H](C)CC[C@]12C (stereo partly drawn) | – | > 100 µM | – | – | – | 17.7 µM | – | 62.2 µM | – | > 100 µM | – | > 100 µM | – | 40.2 µM | – | 16 µM | – | – | – | –
9 | S=c1sc2cscc2s1 | – | > 100 µM | – | 49.5 µM | – | 37.7 µM | – | 77.3 µM | – | 41.1 µM | – | 64.5 µM | – | > 100 µM | – | > 100 µM | – | 74.5 µM | – | –
10 | OCC(O)C(O)C(O)c1nn(-c2ccccc2)c2nc3cc(Cl)c(Cl)cc3nc12 (stereo not drawn) | – | > 100 µM | – | > 100 µM | – | > 100 µM | – | > 100 µM | – | > 100 µM | – | > 100 µM | – | > 100 µM | – | > 100 µM | – | > 100 µM | – | –
11 | COc1ccc(-c2ccc(-c3ccc(C(=N)N)cn3)o2)cc1Cl | 1.77 µM | 3.45 µM | 2.89 µM | 13.3 µM | – | – | 10.6 µM | 22.8 µM | 1.69 µM | 3.22 µM | 2.67 µM | 8.38 µM | – | – | 1.86 µM | 3.63 µM | 3.68 µM | 14.4 µM | 1.32 µM | 2.68 µM
12 | Cc1ccc(C2=C(c3ccc(C)cc3)C(c3ccc(C)cc3)=C(c3ccc(C)cc3)C2=O)cc1 | – | > 100 µM | – | > 100 µM | – | > 100 µM | – | > 100 µM | – | > 100 µM | – | > 100 µM | – | > 100 µM | – | > 100 µM | – | > 100 µM | – | –
13 | O=C(Nc1ccc(Br)cc1)C(=O)C(C(=O)c1ccccc1F)C1OC(=O)c2ccccc21 (stereo not drawn) | – | 85 µM | – | 19.7 µM | – | 35.6 µM | – | > 100 µM | – | 50.2 µM | – | 71.5 µM | – | 64.8 µM | – | > 100 µM | – | 50.8 µM | – | –
14 | CCCCCCCCCCCCCCCCCCOc1ccccc1CC(=O)NCC[N+](C)(C)C | 3.67 µM | 37.9 µM | 4.4 µM | 42.9 µM | 7.58 µM | > 100 µM | 15.4 µM | 35.7 µM | 10.4 µM | 45.4 µM | 3.34 µM | 39.9 µM | – | – | – | – | 2.32 µM | 6.9 µM | – | –
15 | CC(C)CC12CC3CCC(CNC1=O)C32C (stereo not drawn) | – | > 100 µM | – | > 100 µM | – | > 100 µM | – | > 100 µM | – | > 100 µM | – | > 100 µM | – | > 100 µM | – | > 100 µM | – | > 100 µM | – | –
16 | CC1CCCc2c1c1ccc3c(O)cccc3c1oc2=O (stereo not drawn) | – | > 100 µM | – | > 100 µM | – | > 100 µM | – | 61.6 µM | – | > 100 µM | – | 70.8 µM | – | > 100 µM | – | > 100 µM | – | 54.1 µM | – | –
17 | CCN(CC)c1ccc(N=C2C=C(Cl)C(=O)c3ncccc32)c(C)c1 | – | 55.1 µM | – | – | – | 11.6 µM | – | 67.9 µM | – | 91 µM | – | – | – | 90.3 µM | – | 32 µM | – | 25 µM | – | –
18 | CC1(C)CC([P+](c2ccccc2)(c2ccccc2)c2ccccc2)=NN1 | 4.39 µM | > 100 µM | 5.53 µM | 84.5 µM | 3.04 µM | > 100 µM | 11.7 µM | 68.7 µM | 8.67 µM | > 100 µM | 5.09 µM | > 100 µM | 4.41 µM | > 100 µM | 6.47 µM | > 100 µM | 7.4 µM | > 100 µM | – | –
19 | CC(C)C(=O)[O-].CC(C)C(=O)[O-].N.N.N.N.[Co+3].[O-][Cl+3]([O-])([O-])[O-] | > 100 µM | > 100 µM | – | – | > 100 µM | > 100 µM | > 100 µM | > 100 µM | > 100 µM | > 100 µM | > 100 µM | > 100 µM | > 100 µM | > 100 µM | > 100 µM | > 100 µM | > 100 µM | > 100 µM | – | –
